Test results from patent US6867305B2, “Synthesis of epothilones, intermediates thereto and analogues thereof” (Sloan-Kettering Institute for Cancer Research, priority 1996, dated 2005).
Values joined by “and” are separate entries in the source; they are usually repeats but may differ in a detail not shown here. Equal entries are not always repeated. Where two headings read alike, the source gives them in different places.

What was measured:
DC-3F/ADX = experiment: Tumor cell growth inhibition in vitro; format: cell-based, hamster; details: for IC50: DC-3F/ADX; for cross-resistance (fold of resistance vs parent cell line): DC-3F/ADX vs DC-3F
Protocol: The fresh medium containing each drug was replenished every 7-14 days. […] In each case ,the drug-exposed cells were resuspended in fresh media for a minimum of 4 days before the experiments for the cell-growth inhibition was carried out.
The cells were cultured at an initial density of 2-5×10^4 cells per ml. They were maintained in a 5% CO2-humidified atmosphere at 37° C. in RPMI mediun 1640 (GIBCO/BRL) containing penicillin (100 units/ml), streptomycin (100 μg/ml) (GIBCO/BRL), and 5% heat-inactivated fetal bovine serum. For solid tumor cells growing in a monolayer (such as MCF-7/Adr), cytotoxicitiy of the drug was determined in 96-well microtiter plates by using the sulforhodamine B method as described by Skehan et al (23) for measuring the cellular protein content. For cells that were grown in suspension (such as CCRF-CEM and its sublines), cytotoxicitiy was measured by using the 2,-3-bis(2-methoxy-4-nitro-5-sulfophenyl)-5carboxanilide)-2H terazodium hydroxide (XTT)-microculture tetrazonium method (24) in duplicate in 96-well microtiter plates. For both methods, the absorbance of each well was measured with a microplate reader (EL-340, Bio-Tek, Burlington, Vt.). Each run entailed six or seven concentrations of the tested drugs. Dose-effect relationship data were analyzed with the median-effect plot (25) by using a previously described computer program (26).

[1] = Stability in plasma in vitro (HPLC); format: in vitro ADME, dog; details: 5 μg/mL, 37 degree
Protocol: (§1) Stability of dEpoF in animal plasmas. A HPLC method is set up using a NovaPak C 18, 3.9×300 mm column with a mobile phase of 50% acetonitrile in 50 mM potassium dihydrogen phosphate with 0.01% triethylamine at a flow rate of 0.8 ml/min. dEpoF is monitored at a wavelength of 260 nm and has a retention time of about 10 min. The plasma stability is performed with mouse plasma and dog plasma purchased from Pel-Freeze and human plasma from the blood center in MSKCC. A small amount of dEpoF was dissolved in 50% methanol/water at a concentration of 500 μg/mL. An aliquot of 20 μL is then spiked to 2 mL of plasma to a final plasma concentration of 5 μg/mL. The plasma samples were kept at 37 degree. At the time point, 200 μL of the plasma was removed and added to 400 μL of methanol to precipitate the plasma protein. Twenty μL of the supernatant was analyzed by HPLC without further modification. dEpoF disappears rapidly with half life about one hour in the commercial frozen mouse plasma alone, but stable in dog and human plasma.

tubulin = experiment: Tubulin-binding / tubulin polymerization assay; format: biochemical
[2] = Stability in plasma in vitro (HPLC); format: in vitro ADME, human
Protocol: (FIG. 44). […] (FIG. 44).
(§2) Human blood plasma or nude mice plasma (300 μl) containing dEpoB (0.05-20 μg/ml) was added 30 μl of methanol and mixed for 2 min and then added 300 μl of methanol. The centrifuge supernatant was used for high performance liquid chromatography (HPLC). Nova-pak C18 column (15 cm) was used, with 50% acetonitrile/water with 0.8% triethylamine and 0.2% phosphoric acid as mobile phase. UV absorbance at 250 nm was measured.
as §1, with “At the time point, 200 μL of the plasma was removed and added to 400 μL of methanol to precipitate the plasma protein.” left out

[3] = Toxicity in beagle dogs, 10-min i.v. infusion; format: in vivo, beagle dog
Protocol: (§3) dEpoB at doses of 2, 6, 12 and 20 mg/kg, were given to male beagle dogs (11.2-14 kg) via i.v. infusion. The infusion volume was 1 ml/kg for 10 min using the Harvard PHD2000 pump (Harvard Apparatus). dEpoB was formulated in Cremophor 3%, ethanol 3%, propyleneglycol 40% and 5% glucose 54%. The animal was pretreated at −30 min with Benadryl 5 mg/kg, i.v.; cimetidine 5 mg/kg i.m.; and dexamethasone 1 mg/kg, i.e. to minimize allergic reactions due to Cremophor administration.
At 12 mg/kg. […] The body-weight slowly recovered in 2-3 weeks. […] There was a gross abnormality (reddish discoloration) of the intestinal mucosa from duodenum to the ileum. The small intestines contained blood tinged mucinous materials. […] Necrosis of intestinal mucosal epithelium with crypt cells most severely affected at this lethal dose.

B16 Melanoma = format: in vivo, murine; details: mouse, in vivo
[4] = Pharmacokinetics in beagle dogs; format: in vivo; details: male, dog, plasma, intravenous, 6 mg/kg, 10-min i.v. infusion
Protocol: as §3
Pharmacokinetic studies were also carried out for of dEpoB in beagle dogs at 6 mg/kg (120 mg/m^2 body surface), with 10-min i.v. infusion. Serial blood samples were collected in 5 ml heparinized tubes intermittently from-15 min to 24 hours. Plasma concentrations of dEpoB were determined by HPLC as described in methods.
as §2

[5] = system: Human lung carcinoma A549 cells; details: A549 cells exposed to IC50-IC90: VBL 14.3 months, paclitaxel and adriamycin 21.3 months, dEpoB 21.4 months
Excerpt: Repeated exposure of human lung carcinoma A549 cells to sublethal concentrations of antitumor agents may lead to the development of drug resistance.
Every several weeks, cells were harvested for the dose-effect analysis to determine their folds of resistance (using SRB protein staining assay) based on comparing the IC50 value with the IC50 value of the untreated parent cells. Trypsinized/washed cells were used for propagating the cell lineage.

`CC(=O)O[C@H]1C(=O)[C@@]2(C)[C@H]([C@H](OC(=O)c3ccccc3)[C@]3(O)C[C@H](OC(=O)[C@H](O)[C@@H](NC(=O)c4ccccc4)c4ccccc4)C(C)=C1C3(C)C)[C@]1(OC(C)=O)CO[C@@H]1C[C@@H]2O` [Taxol, paclitaxel, reference compound] showed an IC50 (DC-3F/ADX) of 583 nM and an IC50 (DC-3F/ADX; listed as Paclitaxel) of 20200 nM.

With `C/C(=C\c1csc(C)n1)C1C[C@@H]2O[C@]2(C)CCC[C@H](C)[C@H](O)[C@@H](C)C(=O)C(C)(C)C(O)CC(=O)N1` (stereo partly drawn) [aza-EpoB, aza-epothilone B] the “cross-resistance (fold of resistance vs parent cell line)” value (DC-3F/ADX) was 33.1 x, the “cross-resistance (fold of resistance vs parent cell line)” value (DC-3F/ADX; listed as 15-aza-EpoB) was 274 x and the IC50 (DC-3F/ADX; listed as 15-aza-EpoB, read-out: IC50) was 2380 nM. The IC50 (DC-3F/ADX; read-out: IC50) was 288 nM.

In the case of `C/C1=C/C[C@@H](/C(C)=C/c2csc(CO)n2)OC(=O)C[C@H](O)C(C)(C)C(=O)[C@H](C)[C@@H](O)[C@@H](C)CCC1` [dEpoF, 12,13-Desoxyepothilone F], the “stability in dog plasma” value [1] is reported as “stable”, the “tubulin-binding activity retained relative to dEpoB” value (tubulin) is reported as 90% and the “stability in human plasma” value ([2]; 5 μg/mL, 37 degree) is reported as “stable”.

With `C/C1=C/C[C@@H](/C(C)=C/c2csc(C)n2)OC(=O)C[C@H](O)C(C)(C)C(=O)[C@H](C)[C@@H](O)[C@@H](C)CCC1` [dEpoB, 12,13-desoxyepothilone B] the clinical signs ([3]; 12 mg/kg) was “moderate diarrhea (without blood)”, the “decrease in white blood cell (WBC) counts” value ([3]; 12 mg/kg) was 13% and the “drop in body-weight on day 3” value ([3]; 12 mg/kg) was 1.3 kg. The “histopathology of 28 organs or tissues” value ([3]; 12 mg/kg) was “No significant histopathologic lesions”, the “platelet counts, ALT, AST” value ([3]; 12 mg/kg) was “No significant changes” and the “WBC on day 3” value ([3]; 20 mg/kg) was 0.6 k/μl. The “body-weight loss on day 2” value ([3]; 20 mg/kg) was 0.9 kg, the “body-weight loss on day 3” value ([3]; 20 mg/kg) was 3.6 kg and the “increase in ALT and AST by day 4” value ([3]; 20 mg/kg) was 3-6 fold. For the same molecule, the lethality ([3]; 20 mg/kg) was “expired on day 4”, the “clinical signs on day 2” value ([3]; 20 mg/kg i.v.) was “severe bloody diarrhea and dehydration” and the toxicity ([3]; 2 or 6 mg/kg (40 and 120 mg/m^2)) was “No significant toxicity”. The “Therapeutic Effect Rank Order” value (B16 Melanoma) was “dEpoB>Taxol>>EpoB”, the concentration at 24 hr ([4]; read-out: plasma concentration at the end of 24-hr collection) was 45 ng/mL and 92 nM and the half-life ([4]; read-out: α-phase t1/2 (converted)) was 1.9 h. For the same molecule, the half-life ([4]; read-out: β-phase t1/2 (converted)) was 21 h, the “period of stability in human plasma in vitro” value ([2]; human plasma, HPLC) was “over 3 hrs” and the “fold resistance developed to the drug after repeated exposure” value [5] was 21 fold.
